# Target: T1, ECHS1 (short-chain enoyl-CoA hydratase) (Homo sapiens, UniProt P30084)
# T1 sequence (P30084 28-290): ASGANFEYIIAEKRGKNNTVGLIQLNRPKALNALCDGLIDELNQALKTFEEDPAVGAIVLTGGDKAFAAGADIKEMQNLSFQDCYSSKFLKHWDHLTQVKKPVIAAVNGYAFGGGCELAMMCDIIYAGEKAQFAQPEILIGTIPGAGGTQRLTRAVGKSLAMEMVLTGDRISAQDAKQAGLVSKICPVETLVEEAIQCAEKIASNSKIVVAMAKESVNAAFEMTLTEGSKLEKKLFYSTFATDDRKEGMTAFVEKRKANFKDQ
# Test: SPR
# Assay type: binding
row,Kd [nM],Structure (SMILES)
1,2690,CC(=O)CC(=O)SCCNC(=O)CCNC(=O)[C@H](O)C(C)(C)COP(=O)(O)OP(=O)(O)OC[C@H]1O[C@@H](n2cnc3c(N)ncnc32)[C@H](O)[C@@H]1OP(=O)(O)O [acetoacetyl-CoA]
2,863,C/C=C/C(=O)SCCNC(=O)CCNC(=O)[C@H](O)C(C)(C)COP(=O)(O)OP(=O)(O)OC[C@H]1O[C@@H](n2cnc3c(N)ncnc32)[C@H](O)[C@@H]1OP(=O)(O)O [crotonyl-CoA]
3,2570,CCCCCC(=O)SCCNC(=O)CCNC(=O)[C@H](O)C(C)(C)COP(=O)(O)OP(=O)(O)OC[C@H]1O[C@@H](n2cnc3c(N)ncnc32)[C@H](O)[C@@H]1OP(=O)(O)O [hexanoyl-CoA]
4,2640,CCCCCCCC(=O)SCCNC(=O)CCNC(=O)[C@H](O)C(C)(C)COP(=O)(O)OP(=O)(O)OC[C@H]1O[C@@H](n2cnc3c(N)ncnc32)[C@H](O)[C@@H]1OP(=O)(O)O [octanoyl-CoA]

# From publication PMC12003839 (Communications Biology, 2025)
